The text below walks through data of patent US11008292B2, “FGFR4 inhibitor and preparation method and use thereof” (GUANGDONG ZHONGSHENG PHARMACEUTICAL CO., LTD, priority 2016, dated 2021).

Series [1] has as its system Hep3B Transplantation Models. In words: Tumor growth inhibition (TGI), antitumor activity test of mice in vivo. As to conditions: Hep3B transplantation model. The procedure:
The evolutionary growth potential of a tumor was assessed by the relationship between the volume of the tumor and time. The long axis (L) and short axis (W) of a subcutaneous tumor were determined by a caliper twice a week, the tumor volume (TV) was calculated by the formula of ((L×W^2)/2). TGI was calculated by the difference value between the median of tumor volumes of mice in the solvent group and the median of tumor volumes of mice in the drug group, and represented by the percentage accounting for the median of tumor volumes in the solvent control group,
Calculated by the following formula: % TGI=((the median of tumor volume (control group)−the median of tumor volume (dosing group))/the median of tumor volume (control group))×100%
The original statistical analysis was completed by the analysis of repeated variance determination. Subsequently, multiple comparisons were performed by a Scheffe psot hoc experimental method. Single solvent (0.5% methylcellulose+1% aqueous solution of Tween) was the negative control.

A further series concerns the target T1, FGFR1 protein kinase (Homo sapiens, UniProt P11362).
T1 construct: purchased Life technology
In words: In vitro enzyme activity test, Z′-LYTE Assay, FGFR1 enzymatic reaction. It is filed as biochemical. As to conditions: Z′-LYTE detection; 25 μM ATP. The procedure:
(§1) The inhibitory effects of the compounds on FGFR4 kinases were assessed by detecting the enzymatic activities through Z′-LYTE® Assay, with the IC50 value of the compound as the indicator. This activity test was performed by Life technology.
(§2) The test compounds were diluted in a concentration gradient of 3-times, the final concentrations were 10 concentrations ranging from 10 μM to 0.5 nM, with double hole for each concentration; the content of DMSO in the detection reaction was 1%.
FGFR1 Enzymatic Reaction:
1 nM FGFR1 protein kinase, 2 μM Tyr4 peptide, 25 μM ATP, 50 mM HEPES (pH 7.5), 10 mM MgCl2, 1 mM EGTA, 0.01% BRIJ-35, 2 mM MnCl2, 1 mM DTT. The detection plate was Black Proxiplate 384-Plus plate (PerkinElmer), reaction conducted at room temperature for 60 minutes, and the reaction system was 10μμL.
(§3) To the kinase reaction solution was added 5 μL Development reagent B (1:64) to stop the reaction and incubated at 23° C. for 60 minutes, reading the plate with Envision instrument.
(§4) Data was transformed into the phosphorylation rate and the inhibitory rate by curve fitting with Model 205 in XLFIT (iDBS) to obtain the IC50 data of the compounds. It was set as 0% if the bottom of the curve was not in the range of −20% to 20%; otherwise it was set as 100% if the top of the curve was not in the range of 70% to 130%.

Series [2] in a line: Pharmacokinetic evaluation in mice (IV and oral gavage). It is filed as in vivo, female Balb/c nude mice. As to conditions: for AUC(0-t) / clearance / half-life / Vd / Cmax / Tmax: mouse, plasma; for clearance: read-out: Cl (plasma clearance); for half-life: read-out: T1/2 (elimination half-life) (converted); for Vd: read-out: Vdss (steady-state apparent volume of distribution); for Cmax: read-out: Cmax (peak concentration); for Tmax: read-out: Tmax (time to peak). The procedure: […] The test compound suspended in the corresponding solvent at 1 mg/ml was administered by gavage to female Balb/c nude mice (fasted overnight, at an age of 7-9 weeks), with a dosage of 10 mg/kg. Two groups of animals were both blood sampled about 30 μL from jugular vein or tail vein at 0.0833, 0.25, 0.5, 1.0, 2.0, 4.0, 6.0, 8.0 and 24 h post-administration, which was placed into an anticoagulant tube charged with EDTA-K2, and plasma was separated by centrifugation. Plasma concentrations were determined by LC-MS/MS process using WinNonlin™ Version 6.3 (Pharsight, Mountain View, Calif.) pharmacokinetic software, calculating the related pharmacokinetic parameters with a linear logarithmic trapezoidal method for […] models.

For a further series, the target named is T2, FGFR4 kinases (Homo sapiens, UniProt P22455).
T2 construct: purchased Life technology
T2 sequence (P22455 22-802): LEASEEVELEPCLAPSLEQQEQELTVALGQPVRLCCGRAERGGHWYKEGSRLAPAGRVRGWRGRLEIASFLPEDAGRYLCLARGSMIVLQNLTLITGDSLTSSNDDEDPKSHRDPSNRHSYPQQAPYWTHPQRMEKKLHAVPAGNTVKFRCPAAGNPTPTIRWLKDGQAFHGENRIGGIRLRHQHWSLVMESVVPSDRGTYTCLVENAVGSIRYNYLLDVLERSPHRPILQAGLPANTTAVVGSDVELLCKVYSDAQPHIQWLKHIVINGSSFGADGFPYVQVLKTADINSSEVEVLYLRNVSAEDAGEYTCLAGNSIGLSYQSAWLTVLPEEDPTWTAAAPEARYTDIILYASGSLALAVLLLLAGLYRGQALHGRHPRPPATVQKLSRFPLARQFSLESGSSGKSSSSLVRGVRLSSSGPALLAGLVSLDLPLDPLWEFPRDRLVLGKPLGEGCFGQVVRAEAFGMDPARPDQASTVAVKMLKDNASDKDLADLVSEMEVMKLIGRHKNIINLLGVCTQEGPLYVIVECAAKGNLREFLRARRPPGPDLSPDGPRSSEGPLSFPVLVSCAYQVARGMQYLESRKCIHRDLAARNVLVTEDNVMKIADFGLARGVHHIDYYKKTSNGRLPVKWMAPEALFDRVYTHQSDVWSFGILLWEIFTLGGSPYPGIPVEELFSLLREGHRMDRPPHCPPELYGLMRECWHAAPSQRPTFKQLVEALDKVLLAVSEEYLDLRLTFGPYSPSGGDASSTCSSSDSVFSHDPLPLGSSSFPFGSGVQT
In words: In vitro enzyme activity test, Z′-LYTE Assay, FGFR4 enzymatic reaction. The conditions noted are these: Z′-LYTE detection; 150 μM ATP. It counts as biochemical. The procedure: as §1, §2
FGFR4 Enzymatic Reaction:
[…] The detection plate was Bar-coded Corning, low volume NBS, black 384-well plate, reaction conducted at room temperature for 60 minutes, and the reaction system was 10μμL.
as §3, §4

The mark [3] stands for this setting: IV tail vein 2 mg/kg, female Balb/c nude mice.
The mark [4] stands for this setting: PO gavage 10 mg/kg, female Balb/c nude mice.

T1 sequence (P11362 22-822): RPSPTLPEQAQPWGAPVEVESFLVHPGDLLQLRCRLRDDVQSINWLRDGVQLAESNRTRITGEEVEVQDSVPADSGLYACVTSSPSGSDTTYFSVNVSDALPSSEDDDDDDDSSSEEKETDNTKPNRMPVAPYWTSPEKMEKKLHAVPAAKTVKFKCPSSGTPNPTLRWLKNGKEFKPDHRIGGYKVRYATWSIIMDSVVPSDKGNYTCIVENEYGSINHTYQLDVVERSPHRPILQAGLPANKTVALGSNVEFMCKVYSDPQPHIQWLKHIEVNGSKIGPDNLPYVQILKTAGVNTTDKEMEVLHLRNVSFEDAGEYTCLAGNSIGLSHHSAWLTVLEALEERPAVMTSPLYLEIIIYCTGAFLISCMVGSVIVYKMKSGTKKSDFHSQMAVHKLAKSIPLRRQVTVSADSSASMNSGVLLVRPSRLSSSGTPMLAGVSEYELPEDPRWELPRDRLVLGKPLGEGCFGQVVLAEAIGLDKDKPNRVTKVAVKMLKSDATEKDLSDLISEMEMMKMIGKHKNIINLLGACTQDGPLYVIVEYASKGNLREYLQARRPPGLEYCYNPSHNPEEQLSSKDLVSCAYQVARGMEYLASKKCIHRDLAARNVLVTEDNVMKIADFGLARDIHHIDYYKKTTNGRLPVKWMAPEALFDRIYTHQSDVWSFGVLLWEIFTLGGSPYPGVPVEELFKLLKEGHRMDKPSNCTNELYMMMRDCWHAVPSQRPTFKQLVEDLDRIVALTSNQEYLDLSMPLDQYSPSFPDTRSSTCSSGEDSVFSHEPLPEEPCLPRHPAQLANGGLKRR

Consider `C=CC(=O)NC1COCC1Nc1ncc(C=C(F)c2c(Cl)c(OC)cc(OC)c2Cl)cn1` (single isomer, unassigned) [Example 21], for which the “TGI % (dosing on Day 21 for the last time)” value (shortened to “TGI %”) in series [1] (100 mg/kg, BID) came out at 106%. The IC50 at FGFR1 protein kinase turned out to be 1460 nM. In addition, in series [2] (PO gavage 10 mg/kg vs IV 2 mg/kg, female Balb/c nude mice), the “F (bioavailability; oral absorption ratio)” value was found to be 20.4%. In series [2] (setting [3]), the exposure AUC(0-t) amounted to 1.42 µM·h, the clearance was determined as 48.2 mL/min/kg, the half-life was 17.5 min and the Vd came to 0.723 L/kg. In series [2] (setting [4]), the AUC(0-t) amounted to 1.07 µM·h, the Cmax came out at 1120 nM and the Tmax came out at 15 min. On FGFR4 kinases, this compound yielded an IC50 of 17 nM.

Consider `C=CC(=O)Nc1cccc(C)c1Nc1ccc(/C=C(\F)c2c(Cl)c(OC)cc(OC)c2Cl)cn1` [Example 7], for which the “TGI %” value in series [1] (30 mg/kg BID) stood at 108%. The IC50 at FGFR1 protein kinase was more than 10000 nM; against FGFR4 kinases it was 31 nM.

Take `C=CC(=O)N[C@H]1CCOC[C@H]1Nc1ncc(/C=C(\F)c2c(Cl)c(OC)cc(OC)c2Cl)cn1` [Example 16]: in series [1] (100 mg/kg, BID), the “TGI %” value stood at 89%. This compound registered an IC50 against FGFR1 protein kinase of 2520 nM. For the same compound, the “stability enhanced (plasma clearance) compared with the control example 4” value in series [2] (IV, mice, ratio to control example 4) turned out to be 3 times. For the same compound, in series [2] (setting [3]), the AUC(0-t) was 2.8 µM·h, the clearance stood at 23.9 mL/min/kg, the half-life was 40.6 min and the Vd worked out at 1.2 L/kg. Also, in series [2] (setting [4]), the AUC(0-t) was 5.64 µM·h, the Cmax is 3290 nM and the Tmax was 30 min. At FGFR4 kinases, this compound came in with an IC50 of 67.5 nM.

In general, IC50 refers to the concentration at which inhibition is half-maximal. A lower IC50 goes with inhibition by little substance. One may read the AUC(0-t) as the area under the concentration-time curve up to a stated or last time point. Low values mean low exposure, high ones high exposure. What is called Tmax is the time at which the peak concentration occurs.
